Values quoted from earlier work as cited in EP0848611B1, “TACRINE PATCH” (HEXAL AG, priority 1995, dated 1997).

Legend:
[1] = in vivo

In the case of `Nc1c2c(nc3ccccc13)CCCC2` [Tacrin, 1,2,3,4-Tetrahydro-9-acridinamin], the Bioverfügbarkeit ([1]; human) is listed as 10-30%, the Halbwertszeit ([1]; human) is listed as 1,5-3,5 h and the “therapeutischer Blutspiegel” value [1] is listed as 5 to 70 ng/mL. The “Anstieg der ALT-Werte (Alaninaminotransferase)” value (patients) was ≤ 20 fachen der oberen normalen Grenze and the “hepatotoxischer Effekt tritt auf” value (share of patients) was “etwa der Hälfte der Patienten”.
